Tests used:
hTRPM6 = target: T1, hTRPM6 (Homo sapiens, UniProt Q9BX84); experiment: KINOMEscan; type: binding
T1 construct: purchased DiscoverX

hADRα2A = target: T2, hADRα2A (Homo sapiens, UniProt P08913); experiment: cAMP Potentiation (Eurofins-CEREP); settings: @ 10 μM
T2 sequence (P08913 1-465): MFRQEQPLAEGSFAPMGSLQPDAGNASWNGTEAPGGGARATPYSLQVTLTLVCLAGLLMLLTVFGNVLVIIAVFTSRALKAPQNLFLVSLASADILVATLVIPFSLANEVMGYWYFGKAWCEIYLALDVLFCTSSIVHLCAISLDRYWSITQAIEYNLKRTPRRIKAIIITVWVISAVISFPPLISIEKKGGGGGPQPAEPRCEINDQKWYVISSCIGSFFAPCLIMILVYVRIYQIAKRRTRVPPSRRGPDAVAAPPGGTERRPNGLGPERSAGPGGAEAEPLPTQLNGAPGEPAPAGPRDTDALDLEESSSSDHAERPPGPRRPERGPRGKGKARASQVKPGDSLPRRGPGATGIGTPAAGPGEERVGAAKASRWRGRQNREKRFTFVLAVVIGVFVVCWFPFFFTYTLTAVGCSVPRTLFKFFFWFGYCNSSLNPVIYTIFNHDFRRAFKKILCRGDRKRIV

hOPRm1 = hOPRm1 (Homo sapiens, UniProt P35372); experiment: cAMP Agonist (Eurofins-CEREP); settings: @ 1 μM
[1] = test system: SMYD2-induced p53 methylation; experiment: Cell-based ELISA for p53 Lys370me1, U2OS cells transfected with FLAG-SMYD2; settings: Homo sapiens, 15 h
Protocol: Cell lysates were subject to 10% SDS-PAGE and transferred to a PVDF membrane. Each membrane was blocked in Odyssey Blocking Buffer (LI-COR Biosciences) and incubated with monoclonal anti-p53 (D01) antibody (Abcam, ab1101) or rabbit anti-p53 Lys^370me1 antibody (a kind gift from Dr. Shelley Berger) followed by detection with IRDye®680RD goat anti-mouse IgG (LI-COR Biosciences) and IRDye800CW goat anti-rabbit IgG (LI-COR Biosciences) on the Odyssey Imager (LI-COR Biosciences). […] 4–8 h later, cells were treated with 0–25 μM compound for 15 h. […] 24 h later, cells were lysed with 200 μl of MSD Tris Lysis Buffer^TM (Meso Scale Discovery). A MULTI-ARRAY^TM 96-well plate (Meso Scale Discovery, catalog number L15XA-3) was precoated with 2 μg/ml custom-made methyl-p53 antibody (Lampire) in PBS overnight at 4 °C. 150 μl/well MSD Blocking Solution A^TM (final concentration of 3%) was added followed by shaking at room temperature for 1 h. The plate was washed three times with 1× MSD Tris Wash Buffer^TM (Meso Scale Discovery). 0.5 μg of cell lysate in 25 μl/well MSD Tris Lysis Buffer was added, followed by shaking overnight at 4 °C. […] Following a final wash three times with 1× MSD Tris Wash Buffer, 150 μl/well 1× MSD Read Buffer^TM (Meso Scale Discovery) was added, and plates were read on an MSD SECTOR^TM Imager 6000 instrument (Meso Scale Discovery).

hM3 = hM3 (Homo sapiens, UniProt P20309); experiment: Calcium Mobilization Potentiation (Eurofins-CEREP); settings: @ 10 μM
[2] = target: T3, hRPS6KA5(Kin.Dom.1-N-term) (Homo sapiens, UniProt O75582); experiment: KINOMEscan; type: binding
T3 construct: hRPS6KA5(Kin.Dom.1-N-term); purchased DiscoverX (KINOMEscan platform)

hABL2 = target: T4, hABL2 (Homo sapiens, UniProt P42684); experiment: KINOMEscan; type: binding
T4 construct: purchased DiscoverX (KINOMEscan platform)

hRSK1(Kin.Dom.1-N-term) = target: T5, hRSK1(Kin.Dom.1-N-term) (Homo sapiens, UniProt Q15418); experiment: KINOMEscan; type: binding
T5 construct: hRSK1(Kin.Dom.1-N-term); purchased DiscoverX (KINOMEscan platform)

hCIT = target: T6, hCIT (Homo sapiens, UniProt O14578); experiment: KINOMEscan; type: binding
T6 construct: purchased DiscoverX

hTRα1 = target: T7, hTRα1 (Homo sapiens, UniProt P10827); experiment: Nuclear hormone receptor assay (Eurofins-CEREP); settings: read-out: Relative IC50
T7 construct: Eurofins-CEREP

hLIMK2 = target: T8, hLIMK2 (Homo sapiens, UniProt P53671); experiment: KINOMEscan; type: binding
T8 construct: purchased DiscoverX (KINOMEscan platform)

hLTK = target: T9, hLTK (Homo sapiens, UniProt P29376); experiment: KINOMEscan; type: binding
T9 construct: purchased DiscoverX (KINOMEscan platform)

hRARγ = target: T10, hRARγ (Homo sapiens, UniProt P13631); experiment: Nuclear hormone receptor assay (Eurofins-CEREP); settings: read-out: Relative IC50
T10 construct: Eurofins-CEREP

hRSK2(Kin.Dom.1-N-term) = target: T11, hRSK2(Kin.Dom.1-N-term) (Homo sapiens, UniProt P51812); experiment: KINOMEscan; type: binding
T11 construct: hRSK2(Kin.Dom.1-N-term); purchased DiscoverX (KINOMEscan platform)

hINSR = target: T12, hINSR (Homo sapiens, UniProt P06213); experiment: KINOMEscan; type: binding
T12 construct: purchased DiscoverX (KINOMEscan panel)

hADRα1A = target: T13, hADRα1A (Homo sapiens, UniProt P35348); experiment: Calcium Mobilization Agonist (Eurofins-CEREP); settings: @ 13.3 μM
T13 sequence (P35348 1-466): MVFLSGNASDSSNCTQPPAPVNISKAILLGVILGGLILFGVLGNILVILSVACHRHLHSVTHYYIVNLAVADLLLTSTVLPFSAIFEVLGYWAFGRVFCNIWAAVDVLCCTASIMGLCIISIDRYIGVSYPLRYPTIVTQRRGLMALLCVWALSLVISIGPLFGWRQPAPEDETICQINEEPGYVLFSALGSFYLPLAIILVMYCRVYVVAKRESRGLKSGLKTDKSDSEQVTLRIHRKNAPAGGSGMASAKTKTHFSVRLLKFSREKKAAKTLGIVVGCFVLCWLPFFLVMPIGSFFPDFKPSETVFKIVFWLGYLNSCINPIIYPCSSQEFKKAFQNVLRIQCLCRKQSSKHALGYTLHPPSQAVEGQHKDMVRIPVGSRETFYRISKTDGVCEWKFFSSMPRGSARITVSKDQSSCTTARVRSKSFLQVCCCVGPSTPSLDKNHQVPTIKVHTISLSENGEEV

hKIT(A829P) = target: T14, hKIT(A829P) (Homo sapiens, UniProt P10721, A829P); experiment: KINOMEscan; type: binding
T14 construct: purchased DiscoverX (KINOMEscan panel)

T4 sequence (P42684 whole entry): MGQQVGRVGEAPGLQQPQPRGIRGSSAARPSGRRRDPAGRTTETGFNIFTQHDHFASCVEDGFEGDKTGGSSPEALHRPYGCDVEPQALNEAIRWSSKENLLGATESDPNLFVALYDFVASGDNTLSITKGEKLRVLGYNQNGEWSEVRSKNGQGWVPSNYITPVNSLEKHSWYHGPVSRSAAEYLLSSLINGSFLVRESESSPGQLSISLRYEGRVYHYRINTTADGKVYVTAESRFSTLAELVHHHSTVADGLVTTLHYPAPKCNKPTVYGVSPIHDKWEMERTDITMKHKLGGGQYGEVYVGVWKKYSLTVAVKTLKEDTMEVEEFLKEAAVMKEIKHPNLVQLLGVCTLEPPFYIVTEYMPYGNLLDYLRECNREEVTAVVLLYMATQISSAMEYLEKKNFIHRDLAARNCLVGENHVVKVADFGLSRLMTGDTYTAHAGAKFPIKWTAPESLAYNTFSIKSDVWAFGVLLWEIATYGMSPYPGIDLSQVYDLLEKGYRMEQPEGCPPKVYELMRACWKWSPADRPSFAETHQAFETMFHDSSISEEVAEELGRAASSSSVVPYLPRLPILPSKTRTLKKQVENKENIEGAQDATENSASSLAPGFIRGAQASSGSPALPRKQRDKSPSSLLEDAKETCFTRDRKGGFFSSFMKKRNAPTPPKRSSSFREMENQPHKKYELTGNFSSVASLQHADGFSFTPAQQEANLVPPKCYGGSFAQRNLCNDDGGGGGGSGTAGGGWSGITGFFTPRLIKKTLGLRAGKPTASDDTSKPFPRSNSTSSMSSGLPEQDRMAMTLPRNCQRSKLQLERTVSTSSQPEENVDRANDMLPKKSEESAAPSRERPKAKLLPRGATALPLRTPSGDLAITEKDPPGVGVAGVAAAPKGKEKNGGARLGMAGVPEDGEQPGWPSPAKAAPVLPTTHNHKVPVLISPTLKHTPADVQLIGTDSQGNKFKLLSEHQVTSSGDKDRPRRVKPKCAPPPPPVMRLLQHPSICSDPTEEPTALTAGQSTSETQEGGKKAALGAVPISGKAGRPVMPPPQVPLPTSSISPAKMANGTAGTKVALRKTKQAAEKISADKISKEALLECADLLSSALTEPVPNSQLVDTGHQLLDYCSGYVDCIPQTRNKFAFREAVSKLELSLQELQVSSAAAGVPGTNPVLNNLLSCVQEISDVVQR
T10 sequence (P13631 whole entry): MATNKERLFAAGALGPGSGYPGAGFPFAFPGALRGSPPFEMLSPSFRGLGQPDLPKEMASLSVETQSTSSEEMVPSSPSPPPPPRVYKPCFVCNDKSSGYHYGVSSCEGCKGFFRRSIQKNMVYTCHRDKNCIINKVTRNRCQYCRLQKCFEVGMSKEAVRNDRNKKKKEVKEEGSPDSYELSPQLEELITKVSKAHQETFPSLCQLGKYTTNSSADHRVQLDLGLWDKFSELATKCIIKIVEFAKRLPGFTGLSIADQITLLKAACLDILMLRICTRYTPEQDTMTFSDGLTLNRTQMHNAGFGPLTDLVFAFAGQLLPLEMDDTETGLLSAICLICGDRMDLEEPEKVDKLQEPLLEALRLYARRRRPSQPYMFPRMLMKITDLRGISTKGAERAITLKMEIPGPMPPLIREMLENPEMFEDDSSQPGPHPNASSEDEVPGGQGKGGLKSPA
T6 sequence (O14578 whole entry): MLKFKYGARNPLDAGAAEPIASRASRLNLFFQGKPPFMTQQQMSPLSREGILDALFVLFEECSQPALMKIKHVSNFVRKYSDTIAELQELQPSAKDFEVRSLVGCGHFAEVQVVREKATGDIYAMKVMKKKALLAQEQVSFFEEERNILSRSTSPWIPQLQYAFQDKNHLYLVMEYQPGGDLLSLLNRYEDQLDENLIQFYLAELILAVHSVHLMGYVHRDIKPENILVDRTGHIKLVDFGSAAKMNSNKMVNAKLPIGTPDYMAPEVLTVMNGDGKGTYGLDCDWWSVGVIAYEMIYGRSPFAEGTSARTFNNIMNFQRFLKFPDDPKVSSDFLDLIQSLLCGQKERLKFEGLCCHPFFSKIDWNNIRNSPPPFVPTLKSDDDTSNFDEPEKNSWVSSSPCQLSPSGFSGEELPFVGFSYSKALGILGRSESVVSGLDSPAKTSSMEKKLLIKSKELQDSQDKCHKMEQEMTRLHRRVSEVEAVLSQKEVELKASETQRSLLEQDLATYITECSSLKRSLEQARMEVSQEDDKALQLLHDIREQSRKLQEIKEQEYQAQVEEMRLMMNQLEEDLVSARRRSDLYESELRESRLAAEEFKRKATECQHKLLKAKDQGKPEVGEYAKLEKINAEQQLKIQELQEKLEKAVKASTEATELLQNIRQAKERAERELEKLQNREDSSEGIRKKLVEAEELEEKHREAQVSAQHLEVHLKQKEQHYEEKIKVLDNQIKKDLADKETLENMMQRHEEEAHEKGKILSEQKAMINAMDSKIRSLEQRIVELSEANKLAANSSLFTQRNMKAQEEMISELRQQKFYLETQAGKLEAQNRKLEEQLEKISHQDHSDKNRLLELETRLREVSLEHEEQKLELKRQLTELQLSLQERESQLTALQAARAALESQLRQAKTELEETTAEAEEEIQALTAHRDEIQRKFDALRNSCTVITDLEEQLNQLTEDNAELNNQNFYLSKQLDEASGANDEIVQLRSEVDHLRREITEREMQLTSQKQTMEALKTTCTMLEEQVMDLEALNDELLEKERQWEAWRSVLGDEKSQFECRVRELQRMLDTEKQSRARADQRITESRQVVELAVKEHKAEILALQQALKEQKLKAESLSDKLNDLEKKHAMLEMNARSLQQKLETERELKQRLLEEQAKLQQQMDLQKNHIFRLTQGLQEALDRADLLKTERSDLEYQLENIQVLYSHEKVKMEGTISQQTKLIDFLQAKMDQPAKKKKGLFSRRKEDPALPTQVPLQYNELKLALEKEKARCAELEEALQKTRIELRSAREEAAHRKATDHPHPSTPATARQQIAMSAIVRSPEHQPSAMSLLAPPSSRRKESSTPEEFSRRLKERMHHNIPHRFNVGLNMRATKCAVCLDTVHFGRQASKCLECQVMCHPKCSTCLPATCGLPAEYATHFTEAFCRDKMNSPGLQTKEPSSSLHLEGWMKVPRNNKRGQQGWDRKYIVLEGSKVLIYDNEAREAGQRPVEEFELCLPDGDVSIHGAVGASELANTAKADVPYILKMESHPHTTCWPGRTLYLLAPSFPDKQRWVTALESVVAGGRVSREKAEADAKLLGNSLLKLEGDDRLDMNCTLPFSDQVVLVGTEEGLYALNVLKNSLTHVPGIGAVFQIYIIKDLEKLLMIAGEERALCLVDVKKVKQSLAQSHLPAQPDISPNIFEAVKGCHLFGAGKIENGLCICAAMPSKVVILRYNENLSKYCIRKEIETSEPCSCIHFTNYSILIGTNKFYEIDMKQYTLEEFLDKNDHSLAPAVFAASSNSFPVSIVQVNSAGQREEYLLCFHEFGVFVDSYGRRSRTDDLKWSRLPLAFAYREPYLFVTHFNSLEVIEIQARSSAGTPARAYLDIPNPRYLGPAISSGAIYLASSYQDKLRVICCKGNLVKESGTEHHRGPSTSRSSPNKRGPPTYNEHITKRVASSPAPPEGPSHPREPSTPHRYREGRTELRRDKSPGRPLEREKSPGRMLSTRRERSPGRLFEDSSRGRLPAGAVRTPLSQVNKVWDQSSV
T8 sequence (P53671 whole entry): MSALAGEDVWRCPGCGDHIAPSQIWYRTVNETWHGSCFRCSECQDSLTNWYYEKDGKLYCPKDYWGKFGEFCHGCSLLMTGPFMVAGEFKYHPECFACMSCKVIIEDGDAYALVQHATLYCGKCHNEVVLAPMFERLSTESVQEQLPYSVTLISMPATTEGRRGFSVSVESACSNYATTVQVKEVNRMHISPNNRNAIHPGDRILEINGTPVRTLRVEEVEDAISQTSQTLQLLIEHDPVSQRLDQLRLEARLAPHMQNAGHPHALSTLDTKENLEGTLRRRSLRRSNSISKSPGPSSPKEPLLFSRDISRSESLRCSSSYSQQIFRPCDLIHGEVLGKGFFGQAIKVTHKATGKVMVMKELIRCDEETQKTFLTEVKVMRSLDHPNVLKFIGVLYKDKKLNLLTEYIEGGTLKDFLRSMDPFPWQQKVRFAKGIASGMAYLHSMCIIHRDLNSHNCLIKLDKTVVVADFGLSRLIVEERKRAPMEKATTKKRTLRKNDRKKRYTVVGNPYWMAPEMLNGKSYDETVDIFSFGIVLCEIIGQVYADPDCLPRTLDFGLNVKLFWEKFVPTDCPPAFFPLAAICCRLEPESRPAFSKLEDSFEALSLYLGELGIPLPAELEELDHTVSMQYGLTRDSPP
T11 sequence (P51812 68-327 limits assumed): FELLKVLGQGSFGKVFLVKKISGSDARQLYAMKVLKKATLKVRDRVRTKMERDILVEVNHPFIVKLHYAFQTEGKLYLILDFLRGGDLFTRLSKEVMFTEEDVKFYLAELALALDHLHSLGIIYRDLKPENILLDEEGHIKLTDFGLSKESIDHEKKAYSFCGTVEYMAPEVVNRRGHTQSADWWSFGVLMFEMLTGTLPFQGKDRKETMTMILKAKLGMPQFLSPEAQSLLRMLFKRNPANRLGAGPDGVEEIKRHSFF
T3 sequence (O75582 49-318 limits assumed): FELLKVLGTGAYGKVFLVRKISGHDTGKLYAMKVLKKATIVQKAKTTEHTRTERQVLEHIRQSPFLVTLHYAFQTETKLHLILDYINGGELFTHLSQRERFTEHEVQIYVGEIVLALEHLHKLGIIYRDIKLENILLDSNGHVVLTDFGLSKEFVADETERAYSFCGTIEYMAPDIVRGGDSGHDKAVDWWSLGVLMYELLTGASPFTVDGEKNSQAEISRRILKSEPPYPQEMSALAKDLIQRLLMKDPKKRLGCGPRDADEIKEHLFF

SMILES: Cc1cn(CCN2CCN(c3ccccc3-c3cc(C#N)cc(C(=O)NCCCN4CCCC4)c3)CC2)c2ccccc12 [LLY-507, 3-cyano-5-{2-[4-[2-(3-methylindol-1-yl)ethyl]piperazin-1-yl]-phenyl}-N-[(3-pyrrolidin-1-yl)propyl]benzamide]
- IC50 (hTRPM6): > 20 µM
- % Effect, Potentiation (hADRα2A): -20.5%
- % Effect, Stimulation (hOPRm1): 7.4%
- IC50 [1]: 0.6 µM
- % Effect, Potentiation (hM3): -18%
- IC50 [2]: > 20 µM
- IC50 (hABL2): > 20 µM
- IC50 (hRSK1(Kin.Dom.1-N-term)): > 20 µM
- IC50 (hCIT): > 20 µM
- IC50 (hTRα1): > 10 µM
- IC50 (hLIMK2): > 20 µM
- IC50 (hLTK): > 20 µM
- IC50 (hRARγ): > 10 µM
- IC50 (hRSK2(Kin.Dom.1-N-term)): > 20 µM
- IC50 (hINSR): > 20 µM
- % Effect, Stimulation (hADRα1A): -1.9%
- IC50 (hKIT(A829P)): > 20 µM

From publication PMC4447944 (The Journal of Biological Chemistry, 2015)
